Reference: the NIST ThermoML archive (doi:10.1016/j.fluid.2012.06.017)
± gives the expanded uncertainty stated by the source.

Settings: Liquid; Pulse-heating method

Row | Compound | Critical pressure [kPa] | Critical temperature [K]
1 | CC(C)[O-].CC(C)[O-].CC(C)[O-].CC(C)[O-].[Ti+4] [titanium(IV) 2-propanolate] | 1140 ± 60 | 641 ± 12
2 | CC(C)O[Si](OC(C)C)(OC(C)C)OC(C)C [isopropyl silicate ((C3H7O)4Si)] | 1310 ± 80 | 587 ± 12
3 | CC(C)(C)[O-].CC(C)(C)[O-].CC(C)(C)[O-].CC(C)(C)[O-].[Ti+4] [titanium(IV) 2-methylpropan-2-olate] | 1070 ± 60 | 657 ± 14
